We go through seven compounds from the supplement of paper PMC11061612.

Assay [1] relates to SISO (Cervical Carcinoma). Kind of assay: combination Emax (second highest fraction inhibited in the dose matrix, 72 h); higher = more inhibition; extreme values may be limits of the assay. The gist of the method: (§1)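 Cell lines grown in DMEM/F12 or RPMI with 10% FBS were plated in 1536-well plates and held 24 hours at 37°C, 5% CO2 before 72 hours of exposure to two-drug dose matrices, with DMSO typically at 0.2%. CellTiter-Glo 2.0 luminescence gave viability, which was converted to inhibition. Vehicle wells were set to 0 and blank wells to 1. Combination Emax is the second-highest inhibition in the matrix, and Bliss excess is the observed combination effect minus the expected EA + EB − EA·EB, where EA and EB are the single-agent effects.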

The subject of assay [2] is NCI-H1693 (Lung Adenocarcinoma). The description is as above. Summed up:
as §1

Assay [3] concerns NCI-H2141 (Small Cell Lung Carcinoma). The assay is described as above. Summed up: as §1
Assay [4] concerns A549 (Lung Adenocarcinoma). Kind of assay: Bliss excess, mean over the matrix (fraction); higher = more synergy. Summed up:
as §1

Another assay concerns Hs-445 (Non-Cancerous). Described as above. Summed up: as §1
Assay [5] deals with COLO-320-HSR (Colorectal Carcinoma). The description is as above. The gist of the method: as §1
The subject of assay [6] is TT (Thyroid Gland Carcinoma). Described as above. The gist of the method: as §1
Assay [7] has as its system TT2609-C02 (Thyroid Gland Carcinoma). The description is as above. Summed up: as §1
In assay [8] the test system is COR-L311 (Small Cell Lung Carcinoma). The description is as above. The gist of the method:
as §1

The subject of assay [9] is NCI-H64 (Small Cell Lung Carcinoma). The assay is described as above. The gist of the method: as §1
Assay [10] relates to CCK-81 (Colorectal Carcinoma). Described as above. The gist of the method: as §1
The subject of assay [11] is A3-KAW (B-Cell Non-Hodgkin's Lymphoma). Described as above. The gist of the method: as §1
The next assay relates to NY (Osteosarcoma). The description is as above. The gist of the method: as §1
Assay [12] relates to NCI-H1693 (Lung Adenocarcinoma). Described as above. Summed up:
as §1

Assay [13] concerns NCI-H2066 (Squamous Cell Lung Carcinoma). The description is as above. Summed up:
as §1

Assay [14] has as its system PANC-10-05 (Pancreatic Carcinoma). Described as above. Summed up: as §1
In assay [15] the test system is NCI-H1666 (Lung Adenocarcinoma). The description is as above. Summed up:
as §1

Assay [16] relates to ECC10 (Gastric Carcinoma). The description is as above. Summed up:
as §1

Another assay has as its system CAS-1 (Glioblastoma). Described as above. Summed up: as §1
Assay [17] has as its system VCaP (Prostate Carcinoma). Described as above. Summed up:
as §1

With `Cc1cc2ncnn2cc1Nc1ncc2c(n1)n(C1CCOCC1)c(=O)n2C` [AZD7648] + C=CCn1c(=O)c2cnc(Nc3ccc(N4CCN(C)CC4)cc3)nc2n1-c1cccc(C(C)(C)O)n1 [AZD1775] (first compound max 10 µM, partner max 1 µM), the “combination Emax” value in [1] was 0.577; in [2], 0.323; in assay [3], 0.647. In addition, the Bliss excess in [4] is -0.0718; in the assay with Hs-445 (Non-Cancerous), -0.0501; in assay [5], -0.0082; in assay [6], -0.0215; in assay [7], -0.0218; in assay [8] it was -0.119. Moreover, the Bliss excess in [9] is -0.0585; in assay [10] it was 0.0285; in assay [11] it was 0.0521; with NY (Osteosarcoma), -0.0547; in assay [12], 0.0055; in assay [13], -0.105. Further, the Bliss excess is -0.0429 in [14]; 0.0305 in assay [15]; 0.0498 in assay [16]; 0.0219 in the assay with CAS-1 (Glioblastoma); -0.0497 in assay [17].
Take `Cc1cc2ncnn2cc1Nc1ncc2c(n1)n(C1CCOCC1)c(=O)n2C` [AZD7648] + CCN(CCO)CCCOc1ccc2c(Nc3cc(CC(=O)Nc4cccc(F)c4)[nH]n3)ncnc2c1 [AZD2811] (first compound max 10 µM, 7x7, partner max 1 µM): the figures for the “combination Emax” value in assay [1], in assay [2] and in assay [3] were 0.265, 0.263 and 0.358, respectively. Further, the Bliss excess was -0.0025 in [4]; 0.0394 in the assay on Hs-445 (Non-Cancerous); 0.0372 in assay [5]; -0.0266 in assay [6]; 0.0149 in assay [7]; -0.0806 in assay [8]. For the same compound, the Bliss excess in assay [9] was 0.0392; in assay [10], 0.0699; in assay [11] it was 0.0762; with NY (Osteosarcoma) it was 0.0076; in assay [12], -0.0059; in assay [13], -0.0318. The Bliss excess in assay [14] is -0.0341; in assay [15], -0.0087; in assay [16] it was -0.047; in the assay with CAS-1 (Glioblastoma), 0.0895; in assay [17], 0.0023.
With `Cc1cc2ncnn2cc1Nc1ncc2c(n1)n(C1CCOCC1)c(=O)n2C` [AZD7648] + CN(C)CCCOc1ccc(-c2ccc3ncc4c(c3c2)n(C2CCOCC2)c(=O)n4C)cn1 [AZD0156] (first compound max 10 µM, 7x7, partner max 1 µM), the “combination Emax” value was determined as 0.16 in assay [1], 0.222 in [2] and 0.229 in [3]. The Bliss excess was -0.0192 in [4]; -0.0388 in the assay with Hs-445 (Non-Cancerous); 0.0391 in assay [5]; -0.0269 in [6]; -0.0188 in assay [7]; -0.054 in assay [8]. The Bliss excess is -0.0367 in assay [9]; -0.0003 in assay [10]; 0.162 in [11]; -0.0172 with NY (Osteosarcoma); 0.0173 in assay [12]; -0.026 in [13]. Further, the Bliss excess was -0.0059 in assay [14]; -0.0072 in [15]; 0.0025 in assay [16]; -0.0246 in the assay with CAS-1 (Glioblastoma); 0.0154 in assay [17].
`Cc1cc2ncnn2cc1Nc1ncc2c(n1)n(C1CCOCC1)c(=O)n2C` [AZD7648] + C[C@@H]1COCCN1C2=NC(=NC(=C2)C3(CC3)[S@](=N)(=O)C)C4=C5C=CNC5=NC=C4 [AZD6738] (first compound max 10 µM, 7x7, partner max 10 µM): the “combination Emax” value in [1] came to 0.505; in assay [2], 0.294; in assay [3], 0.578. Moreover, the Bliss excess in assay [4] is -0.0282; in the assay on Hs-445 (Non-Cancerous), 0.001; in assay [5], -0.0398; in assay [6], 0.0666; in assay [7], -0.0004; in assay [8] it was -0.016. The Bliss excess is -0.0003 in [9]; 0.0178 in assay [10]; -0.034 in [11]; -0.0052 with NY (Osteosarcoma); 0.0177 in assay [12]; 0.025 in assay [13]. The Bliss excess in assay [14] came out at 0.0487; in assay [15], 0.0034; in assay [16], 0.0582; in the assay with CAS-1 (Glioblastoma), 0.0024; in assay [17] it was 0.0437.
With `Cc1cc2ncnn2cc1Nc1ncc2c(n1)n(C1CCOCC1)c(=O)n2C` [AZD7648] + O=C(c1cc(Cc2n[nH]c(=O)c3ccccc23)ccc1F)N1CCN(C(=O)C2CC2)CC1 [Olaparib] (first compound max 10 µM, 7x7, partner max 10 µM), the figures for the “combination Emax” value in assay [1], in assay [2] and in assay [3] were 0.207, 0.172 and 0.218, respectively. Besides, the Bliss excess in [4] was 0.0613; with Hs-445 (Non-Cancerous), 0.0006; in assay [5], -0.0169; in assay [6] it was -0.0702; in assay [7] it was -0.0276; in [8] it was -0.126. The Bliss excess was -0.0384 in assay [9]; -0.0546 in assay [10]; -0.0107 in [11]; -0.0311 in the assay on NY (Osteosarcoma); -0.0299 in [12]; -0.0624 in assay [13]. The Bliss excess is -0.0426 in assay [14]; -0.0471 in assay [15]; -0.0305 in [16]; -0.0909 with CAS-1 (Glioblastoma); -0.0336 in assay [17].
With `NC1(C(=O)N[C@@H](CCO)c2ccc(Cl)cc2)CCN(c2ncnc3[nH]ccc23)CC1` [Capivasertib] + CC(=O)c1c(C)c2cnc(Nc3ccc(N4CCNCC4)cn3)nc2n(C2CCCC2)c1=O [Palbociclib] (first compound max 10 µM, 7x7, partner max 10 µM), the “combination Emax” value turned out to be 0.201 in [1], 0.485 in assay [2] and 0.299 in assay [3]. Moreover, the Bliss excess in [4] is -0.103; with Hs-445 (Non-Cancerous), -0.0616; in [5], -0.0013; in assay [6], -0.001; in assay [7] it was -0.0398; in assay [8] it was -0.0489. In addition, the Bliss excess in [9] was -0.0332; in assay [10], -0.0025; in assay [11], 0.0548; in the assay with NY (Osteosarcoma), -0.0134; in [12], -0.0631; in assay [13], -0.033. Moreover, the Bliss excess in assay [14] is -0.0526; in assay [15], 0.0086; in assay [16], -0.011; in the assay with CAS-1 (Glioblastoma) it was -0.044; in assay [17], 0.0119.
With `NC1(C(=O)N[C@@H](CCO)c2ccc(Cl)cc2)CCN(c2ncnc3[nH]ccc23)CC1` [Capivasertib] + CC(C)n1c(=O)n(C)c2cnc3cc(F)c(-c4ccc(OCCCN5CCCCC5)nc4)cc3c21 [AZD1390] (first compound max 10 µM, 7x7, partner max 0.3 µM), the “combination Emax” value in [1] was 0.269; in [2], 0.315; in assay [3], 0.249. For the same compound, the Bliss excess in assay [4] was -0.0678; in the assay on Hs-445 (Non-Cancerous), -0.0763; in [5] it was -0.0512; in assay [6], -0.0945; in [7], -0.0609; in [8] it was -0.0564. For the same compound, the Bliss excess in assay [9] was -0.0284; in assay [10], -0.0514; in [11], 0.0088; with NY (Osteosarcoma), -0.0643; in assay [12] it was -0.111; in assay [13], -0.0222. Moreover, the Bliss excess in assay [14] is -0.101; in assay [15], -0.0285; in assay [16], -0.0231; with CAS-1 (Glioblastoma), -0.0671; in [17], -0.0389.
